Measurements from the supplement of paper PMC4862054.

How the values were obtained:
Conditions in all cases: incubation time: 72 h
DU-4475 [1] = assay: normalised response (% of control), CellTiter-Glo; higher = more viable cells (100 = DMSO, 0 = benzethonium chloride kill control)
In short: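 In 384-well plates holding compound at 5 concentrations in 10-fold steps over a 10,000-fold range specific to each compound, breast cancer cell lines were seeded as 20 µl suspension and incubated 72 h. CellTox Green fluorescence was measured at 485/520 nm, after which CellTiter-Glo luminescence was measured following 10 min at room temperature. Plate signals were normalised to 0.1 % DMSO (100) and a positive kill control (0), and each value is the normalised signal at a single concentration.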

HDQ-P1 [2] = assay: normalised viability (% of control), CellTiter-Blue; higher = more viable cells (about 100 = DMSO control)
Description: (§1)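 DSRT, CellTiter-Blue viability, 72 h incubation. Signal is normalised to DMSO and benzethonium chloride controls. Value is the normalised response at dose 9.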

CAL-51 [3] = assay: as above
Description: as §1

DU-4475 [4] = assay: as above
Description: as §1

CAL-148 [5] = assay: as above
Description: as §1

Hs578T = assay: normalised response (% of control), CellTiter-Glo; higher = more viable cells (100 = DMSO, 0 = benzethonium chloride kill control)
Description: (§2)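 DSRT, 72 h incubation, CellTox Green / CellTiter-Glo readout. Signal is normalised to DMSO and benzethonium chloride controls. Value is the normalised response at the highest dose.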

HCC1937 = assay: as above
Description: as §2

HDQ-P1 [6] = assay: as above
Description: as §2

SK-BR-3 = assay: as above
Description: as §2

MFM-223 = assay: as above
Description: as §2

MDA-MB-453 = assay: as above
Description: as §2

MCF-10A = assay: as above
Description: as §2

CAL-51 [7] = assay: as above
Description: as §2

MDA-MB-436 = assay: as above
Description: as §2

CAL-120 = assay: as above
Description: as §2

MDA-MB-468 = assay: as above
Description: as §2

DU-4475 [8] = assay: as above; remark: listed apart in the source
Description: as §2

CAL-148 [9] = assay: as above
Description: as §2

MDA-MB-231 = assay: as above
Description: as §2

BT-474 = assay: as above
Description: as §2

HCC1143 = assay: as above
Description: as §2

HCC1599 = assay: as above
Description: as §2

CAL-85-1 = assay: as above
Description: as §2

BT-549 = assay: as above
Description: as §2

Work on `CC(C)C[C@H](NC(=O)[C@H](CCc1ccccc1)NC(=O)CN1CCOCC1)C(=O)N[C@@H](Cc1ccccc1)C(=O)N[C@@H](CC(C)C)C(=O)[C@@]1(C)CO1` [Carfilzomib] (100 nM) yielded a normalised response (DU-4475 [1]) of 14.6%.

In the case of `CC(C)C[C@H](NC(=O)[C@H](CCc1ccccc1)NC(=O)CN1CCOCC1)C(=O)N[C@@H](Cc1ccccc1)C(=O)N[C@@H](CC(C)C)C(=O)[C@@]1(C)CO1` [Carfilzomib] (1000 nM), the normalised viability (HDQ-P1 [2]) is reported as 0.68%, the normalised viability (CAL-51 [3]) is reported as 1.6% and the normalised viability (DU-4475 [4]) is reported as 2.97%. For the same molecule, the normalised viability (CAL-148 [5]) was 2.83%, the normalised response (Hs578T) was 0.58% and the normalised response (HCC1937) was 2.47%. The normalised response (HDQ-P1 [6]) was 0.05%, the normalised response (SK-BR-3) was 2.94% and the normalised response (MFM-223) was 6.19%. For the same molecule, the normalised response (MDA-MB-453) was 14.3%, the normalised response (MCF-10A) was 0.46% and the normalised response (CAL-51 [7]) was 1.12%. The normalised response (MDA-MB-436) was 2.1%, the normalised response (CAL-120) was 1.88% and the normalised response (MDA-MB-468) was 1.29%. The normalised response (DU-4475 [8]) was 7.95%, the normalised response (CAL-148 [9]) was 7.77% and the normalised response (MDA-MB-231) was 0.28%. It also gave a normalised response (BT-474) of 6.38%, a normalised response (HCC1143) of 5.78% and a normalised response (HCC1599) of 8.99%. The normalised response (CAL-85-1) was 1.03% and the normalised response (BT-549) was 2.23%.

For `Nc1nc(Cl)nc2c1ncn2[C@@H]1O[C@H](CO)[C@@H](O)[C@@H]1F` [Clofarabine] (1000 nM), the normalised response (DU-4475 [1]) was 70.9%.

Molecule `CCN(CC)CCOc1ccc(C(=C(Cl)c2ccccc2)c2ccccc2)cc1` [Clomifene] (1000 nM) has a normalised response (DU-4475 [1]) of 97.4%.

For `C[C@@H]1C[C@H]2[C@@H]3CCC4=CC(=O)C=C[C@]4(C)[C@@]3(F)[C@@H](O)C[C@]2(C)[C@@]1(O)C(=O)CO` [Dexamethasone] (1000 nM), the normalised response (DU-4475 [1]) was 96.2%.

In the case of `CC(C)C(=O)Nc1ccc([N+](=O)[O-])c(C(F)(F)F)c1` [Flutamide] (1000 nM), the normalised response (DU-4475 [1]) is reported as 95.9%.

`COc1cc2c(Oc3ccc(NC(=O)C4(C(=O)Nc5ccc(F)cc5)CC4)cc3F)ccnc2cc1OCCCN1CCOCC1` [Foretinib] (100 nM) showed a normalised response (DU-4475 [1]) of 99.9%.

For `NC(=O)NO` [Hydroxyurea] (10000 nM), the normalised response (DU-4475 [1]) was 100%.

Molecule `O=NN(CCCl)C(=O)NC1CCCCC1` [Lomustine] (1000 nM) has a normalised response (DU-4475 [1]) of 99.2%.

Work on `O=C(O)CC[C@H]1CC[C@@](c2cc(F)ccc2F)(S(=O)(=O)c2ccc(Cl)cc2)CC1` [MK-0752] (100 nM) yielded a normalised response (DU-4475 [1]) of 99.2%.

`NC1(c2ccc(-c3nc4ccn5c(=O)[nH]nc5c4cc3-c3ccccc3)cc2)CCC1` [MK-2206] (100 nM) was tested, and the normalised response (DU-4475 [1]) was 97.5%.

`NC(=O)c1cccc2cn(-c3ccc([C@@H]4CCCNC4)cc3)nc12` [MK-4827] (1000 nM) showed a normalised response (DU-4475 [1]) of 86%.

Molecule `O=C(c1cc(Cc2n[nH]c(=O)c3ccccc23)ccc1F)N1CCN(C(=O)C2CC2)CC1` [Olaparib] (1000 nM) has a normalised response (DU-4475 [1]) of 92.5%.

In the case of `CO[C@H](C(=O)[C@@H](O)[C@@H](C)O)[C@@H]1Cc2cc3cc(O[C@H]4C[C@@H](O[C@@H]5C[C@@H](O)[C@H](O)[C@@H](C)O5)[C@H](O)[C@@H](C)O4)c(C)c(O)c3c(O)c2C(=O)[C@H]1O[C@H]1C[C@@H](O[C@@H]2C[C@@H](O)[C@@H](O[C@@H]3C[C@](C)(O)[C@H](O)[C@@H](C)O3)[C@@H](C)O2)[C@H](O)[C@@H](C)O1` [Plicamycin] (1000 nM), the normalised response (DU-4475 [1]) is reported as 99.2%.

For `C[C@]12C=CC(=O)C=C1CC[C@@H]1[C@@H]2C(=O)C[C@@]2(C)[C@H]1CC[C@]2(O)C(=O)CO` [Prednisone] (1000 nM), the normalised response (DU-4475 [1]) was 99%.

`CO[C@H]1C[C@@H]2CC[C@@H](C)[C@@](O)(O2)C(=O)C(=O)N2CCCC[C@H]2C(=O)O[C@H]([C@H](C)C[C@@H]2CC[C@@H](O)[C@H](OC)C2)CC(=O)[C@H](C)/C=C(\C)[C@@H](O)[C@@H](OC)C(=O)[C@H](C)C[C@H](C)/C=C/C=C/C=C/1C` [Sirolimus] (100 nM) was tested, and the normalised response (Hs578T) was 68.8%, the normalised response (HCC1937) was 66.9% and the normalised response (HDQ-P1 [6]) was 73.4%. The normalised response (SK-BR-3) was 57.4%, the normalised response (MFM-223) was 64.9% and the normalised response (MDA-MB-453) was 53.2%. The normalised response (MCF-10A) was 85.7%, the normalised response (CAL-51 [7]) was 61.3% and the normalised response (MDA-MB-436) was 73.9%. The normalised response (CAL-120) was 64.5%, the normalised response (MDA-MB-468) was 53.4% and the normalised response (DU-4475 [8]) was 72.8%. It also gave a normalised response (CAL-148 [9]) of 59.6%, a normalised response (MDA-MB-231) of 81.2% and a normalised response (BT-474) of 78.8%. It also gave a normalised response (HCC1143) of 62.4%, a normalised response (HCC1599) of 95.8% and a normalised response (CAL-85-1) of 60.5%. It also gave a normalised response (BT-549) of 54.1%.

With `CN1CCN(c2nc(C3=C(c4c[nH]c5ccccc45)C(=O)NC3=O)c3ccccc3n2)CC1` [Sotrastaurin] (1000 nM) the normalised response (DU-4475 [1]) was 86.4%.

For `COc1cc2c(N3CCN(C(=O)Nc4ccc(OC(C)C)cc4)CC3)ncnc2cc1OCCCN1CCCCC1` [Tandutinib] (100 nM), the normalised response (DU-4475 [1]) was 99.7%.

With `C[C@@H](C(=O)O)c1ccc(-c2ccccc2)c(F)c1` [Tarenflurbil] (1000 nM) the normalised response (DU-4475 [1]) was 94.6%.

Molecule `Cn1nnc2c(C(N)=O)ncn2c1=O` [Temozolomide] (1000 nM) has a normalised response (DU-4475 [1]) of 95%.

`CC[C@@H]1C(=O)N(C)c2cnc(Nc3ccc(C(=O)N[C@H]4CC[C@H](N5CCN(CC6CC6)CC5)CC4)cc3OC)nc2N1C(C)C` [Volasertib] (100 nM) was tested, and the normalised response (DU-4475 [1]) was 49.1%.
